According to PubChem BioAssay (NCI):
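Step 1: Grow cells in 96-well plates. Step 2: Expose to compound for 48 hours at 5 concentrations. Step 3: Interpolate endpoints linearly; if unreached, use highest concentration. Here, GI50 denotes the concentration required for 50% inhibition of growth. TGI: concentration producing complete growth inhibition.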

Tests used:
Assay in all cases: NCI-60 cell line screen, 48 h
HCT-116 colon = test system: HCT-116 colon
IGROV1 ovarian = test system: IGROV1 ovarian
SW-620 colon = test system: SW-620 colon
NCI-H226 lung = test system: NCI-H226 lung
MOLT-4 leukemia = test system: MOLT-4 leukemia
HT29 colon = test system: HT29 colon
SNB-75 CNS = test system: SNB-75 CNS
RXF 393 renal = test system: RXF 393 renal
MDA-MB-231 breast = test system: MDA-MB-231 breast
HS 578T breast = test system: HS 578T breast

| Structure (SMILES) | TGI (HCT-116 colon) [µM] | TGI (IGROV1 ovarian) [µM] | TGI (SW-620 colon) [µM] | TGI (NCI-H226 lung) [µM] | TGI (MOLT-4 leukemia) [µM] | TGI (HT29 colon) [µM] | TGI (SNB-75 CNS) [µM] | TGI (RXF 393 renal) [µM] | TGI (MDA-MB-231 breast) [µM] | TGI (HS 578T breast) [µM] | GI50 (HCT-116 colon) [nM] | GI50 (MDA-MB-231 breast) [nM] | GI50 (SW-620 colon) [nM] | GI50 (SNB-75 CNS) [nM] | GI50 (HS 578T breast) [nM] | GI50 (NCI-H226 lung) [nM] | GI50 (RXF 393 renal) [nM] | GI50 (IGROV1 ovarian) [nM] | GI50 (MOLT-4 leukemia) [nM] | GI50 (HT29 colon) [nM] |
| --- | --- | --- | --- | --- | --- | --- | --- | --- | --- | --- | --- | --- | --- | --- | --- | --- | --- | --- | --- | --- |
| COc1ccc(NC(=O)CC(=O)N/N=C/c2ccc(N(CCC#N)S(=O)(=O)c3ccccc3)cc2)cc1 | > 100 | > 100 | > 100 | > 100 | > 100 | > 100 | – | – | – | – | – | – | – | – | – | – | – | – | – | – |
| COc1ccc(C(=O)C(C(=O)C(=O)Nc2nccs2)c2ccc(OC)cc2)cc1 (centres undefined) | > 100 | > 100 | > 100 | – | > 100 | > 100 | > 100 | > 100 | – | – | – | – | – | – | – | – | – | – | – | – |
| COc1cc2c([C@@H](OC(=O)c3ccccc3)c3ccc4c(c3)OCO4)nccc2c(OC)c1OC | > 100 | > 100 | > 100 | 94.5 | > 100 | > 100 | > 100 | 85.3 | – | – | – | – | – | – | – | – | – | – | – | – |
| CCCCN(CCCC)C(=O)C(=O)C(C)C(=O)CC (centres undefined) | – | > 100 | > 100 | > 100 | > 100 | > 100 | > 100 | – | – | – | – | – | – | – | – | – | – | – | – | – |
| Cc1cccc(C)c1NC(=O)CCC(=O)NC(N)=S | > 100 | > 100 | > 100 | > 100 | > 100 | > 100 | > 100 | > 100 | – | – | – | – | – | – | – | – | – | – | – | – |
| CC(O)(CNS(=O)(=O)c1ccccc1)c1ccccc1 (centres undefined) | > 100 | > 100 | > 100 | > 100 | – | > 100 | > 100 | > 100 | > 100 | > 100 | – | – | – | – | – | – | – | – | – | – |
| Cc1[nH]nc2c1C(=O)C=C(N(CCO)c1ccccc1)C2=O | > 100 | > 100 | > 100 | > 100 | > 100 | > 100 | > 100 | > 100 | – | – | – | – | – | – | – | – | – | – | – | – |
| CCCCCCNc1nc(N2CCOCC2)c2[nH]c(NCCCCCC)nc2n1 | 3.27 | – | 2.76 | 4 | – | – | 2.77 | 2.67 | 3.3 | 3.16 | 1830 | 1810 | 1440 | 1460 | 1370 | 1700 | 1360 | – | – | – |
| N#CC(C(=N/NC(N)=S)/C(=N/NC(N)=S)C(C#N)c1ccc(Cl)cc1)c1ccc(Cl)cc1 (centres undefined) | > 100 | > 100 | > 100 | > 100 | > 100 | > 100 | 92.1 | > 100 | – | – | – | – | – | – | – | – | – | – | – | – |
| CCc1cccc(C(C)CC)c1NC(=O)C(=O)C(CC(=O)Nc1ccc(Cl)c(Cl)c1)C(=O)OC (centres undefined) | > 100 | > 100 | > 100 | > 100 | > 100 | > 100 | > 100 | > 100 | – | – | – | – | – | – | – | – | – | – | – | – |
| Cc1nc2cc(Nc3nc(Nc4ccc(F)cc4)nc(N4CCN(C)CC4)n3)ccc2n1Cc1ccccc1 | 3.06 | 5.83 | 3.95 | – | 5.07 | 3.28 | 2.79 | – | 3.36 | – | 1330 | 1690 | 1790 | 1400 | – | – | – | 2450 | 2010 | 1660 |
| CNC(=O)OC1C(O[C@H]2C[C@H]3[C@@H]4CC=C5C[C@@H](O)CC[C@]5(C)[C@H]4CC[C@]3(C)[C@H]2[C@H](C)C(=O)CCC(C)C)OCC(O)C1OC1OCC(O)C(O)C1OC(=O)c1ccc(OC)cc1 (some centres undefined) | 3.11 | 3.95 | 0.383 | – | 0.0242 | 4.92 | 4.97 | 0.0111 | 4.62 | 0.0584 | 12.9 | 103 | 12.2 | 6.28 | < 2.75 | – | < 2.75 | 22.4 | 8.24 | 63.1 |
